From article PMC10254170, “Diastereoselective Synthesis of the Borylated D-Galactose Monosaccharide 3-Boronic-3-Deoxy-D-Galactose and Biological Evaluation in Glycosidase Inhibition and in Cancer for Boron Neutron Capture Therapy (BNCT)” (Molecules, 2023)
Where two headings read alike, the source gives them in different places.

Columns and labels:
[1] = test system: rat intestinal maltase α-glucosidase; test: Glycosidase inhibition, rat intestinal maltase; assay type: biochemical; settings: for inhibition %: in methanol
Description: (§1) Glycosidase modulation studies need to explore selectivity as well as potency. Our drugs and controls are therefore screened against a panel of glycosidases in methanol (Table 1) to identify the glycosidase-related disease area(s), selectivity profile, and potency of biological action for each drug. The presence of organic boron covalently bonded to the drug structure also grants a reduced toxicity profile. Following the glycosidase inhibition range recommendations, an IC50 value >250 μm denotes weak inhibition, 100–249 μm denotes moderate inhibition, 10–99 μm good inhibition, 0.1–9 μm potent inhibition, and <0.1 μm very potent inhibition. […] Our boronated D-galactose 7 represents a novel lead in glycosidase inhibition.
(§2) The glycosidases screened are the following: rice α-glucosidase, yeast α-glucosidase, Bacillus α-glucosidase, rat intestinal maltase α-glucosidase, almond β-glucosidase, bovine liver β-glucosidase, coffee beans α-galactosidase, bovine liver β-galactosidase, Jack bean α-mannosidase, snail β-mannosidase, Penicillium decumbens α-L-rhamnosidase, bovine kidney α-L-fucosidase, Eschierichia coli β-glucuronidase, bovine liver β-glucuronidase, porcine kidney trehalase, Aspergillus niger amyloglucosidase, and bovine kidney N-acetyl-β-glucosaminidase. The disease areas for each glycosidase are summarized in [1].
(§3) Brush border membranes were prepared from the rat small intestine according to the method of Kessler et al. and were assayed at pH 6.8 for rat intestinal maltase using maltose. For rat intestinal maltase, porcine kidney trehalase, and A. niger amyloglucosidase activities, the reaction mixture contained 25 mM maltose and the appropriate amount of enzyme, and the incubations were performed for 10–30 min at 37 °C. The reaction was stopped by heating at 100 °C for 3 min. After centrifugation (600 g; 10 min), the resulting reaction mixture was added to the Glucose CII-test Wako (Wako Pure Chemical Ind., Osaka, Japan). The absorbance at 505 nm was measured to determine the amount of the released D-glucose. Other glycosidase activities were determined using an appropriate para-nitrophenyl glycoside as substrate at the optimum pH of each enzyme. The reaction mixture contained 2 mM of the substrate and the appropriate amount of enzyme. The reaction was stopped by the addition of 400 mM Na2CO3. The released para-nitrophenol was measured spectrometrically at 400 nm. All reactions run in methanol.

[2] = test system: bovine liver β-glucosidase; test: Glycosidase inhibition, bovine liver β-glucosidase; assay type: biochemical; settings: for inhibition %: in methanol
Description: as §1, §2
(§4) The enzymes α-glucosidase (from yeast), β-glucosidases (from almond and bovine liver), α-galactosidase (from coffee beans), β-galactosidase (from bovine liver), α-mannosidase (from Jack bean), β-mannosidase (from snail), α-L-rhamnosidase (from Penicillium decumbens), α-L-fucosidase (from bovine kidney), trehalase (from porcine kidney), β-glucuronidases (from E. coli and bovine liver), amyloglucosidase (from A. niger), para-nitrophenyl glycosides, and various disaccharides were purchased from Sigma-Aldrich Co.
as §3

[3] = test system: bovine liver β-galactosidase; test: Glycosidase inhibition, bovine liver β-galactosidase; assay type: biochemical; settings: for inhibition %: in methanol
Description: as §1, §2, §4, §3

E. coli β-glucuronidase = biological target: T1, E. coli β-glucuronidase (Escherichia coli, UniProt P05804); test: Glycosidase inhibition, E. coli β-glucuronidase; assay type: biochemical
T1 construct: purchased Sigma-Aldrich Co
T1 sequence (P05804 whole entry): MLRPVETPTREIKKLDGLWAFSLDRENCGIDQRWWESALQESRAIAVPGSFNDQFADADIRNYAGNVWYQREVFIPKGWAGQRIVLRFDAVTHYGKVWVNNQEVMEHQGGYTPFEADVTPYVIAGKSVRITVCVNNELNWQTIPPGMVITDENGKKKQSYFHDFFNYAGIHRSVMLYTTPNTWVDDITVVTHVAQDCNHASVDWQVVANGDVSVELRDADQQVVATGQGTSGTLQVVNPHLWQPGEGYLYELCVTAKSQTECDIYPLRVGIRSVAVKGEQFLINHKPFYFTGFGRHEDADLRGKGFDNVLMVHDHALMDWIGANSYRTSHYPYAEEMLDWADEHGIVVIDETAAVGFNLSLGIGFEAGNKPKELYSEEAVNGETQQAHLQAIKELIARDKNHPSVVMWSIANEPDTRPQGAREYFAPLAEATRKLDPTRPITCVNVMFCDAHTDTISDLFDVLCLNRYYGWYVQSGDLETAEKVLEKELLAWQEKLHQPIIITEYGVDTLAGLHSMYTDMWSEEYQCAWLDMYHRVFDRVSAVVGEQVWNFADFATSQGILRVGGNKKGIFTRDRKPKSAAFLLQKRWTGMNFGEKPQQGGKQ
Description: as §1, §2, §4, §3

[4] = biological target: T2, Aspergillus niger amyloglucosidase (Aspergillus niger, UniProt P69328); test: Glycosidase inhibition, A. niger amyloglucosidase; assay type: biochemical
T2 construct: purchased Sigma-Aldrich Co
T2 sequence (P69328 25-640): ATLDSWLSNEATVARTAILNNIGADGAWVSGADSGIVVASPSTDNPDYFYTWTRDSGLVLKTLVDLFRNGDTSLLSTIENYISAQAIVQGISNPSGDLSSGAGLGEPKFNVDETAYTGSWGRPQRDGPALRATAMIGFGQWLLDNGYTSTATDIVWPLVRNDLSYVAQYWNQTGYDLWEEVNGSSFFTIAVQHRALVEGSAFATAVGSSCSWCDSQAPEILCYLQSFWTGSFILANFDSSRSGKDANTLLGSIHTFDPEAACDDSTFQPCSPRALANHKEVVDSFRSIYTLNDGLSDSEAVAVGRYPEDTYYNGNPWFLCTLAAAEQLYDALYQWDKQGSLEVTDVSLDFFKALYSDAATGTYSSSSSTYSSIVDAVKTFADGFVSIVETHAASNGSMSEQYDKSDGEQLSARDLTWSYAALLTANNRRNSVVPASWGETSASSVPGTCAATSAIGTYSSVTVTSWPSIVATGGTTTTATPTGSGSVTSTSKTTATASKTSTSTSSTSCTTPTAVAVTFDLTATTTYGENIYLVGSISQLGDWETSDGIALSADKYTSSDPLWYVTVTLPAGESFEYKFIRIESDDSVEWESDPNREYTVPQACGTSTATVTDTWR
Description: as §1, §2, §4, §3

[5] = test system: HT29 (colorectal carcinoma); test: Cancer screening (MTT growth inhibition), HT29; assay type: cell-based; settings: 72 h; for inhibition at 25 µM: HT-29, 25 µM of drug, read-out: Percentage (%) cell growth inhibition; for inhibition at 25 µM / Percentage (%) cell growth inhibition: n = 3, mean ± SEM; for Percentage (%) cell growth inhibition: 25 µM of drug
Procedure: (§5) All test agents were prepared as stock solutions (20 mM) in dimethyl sulfoxide (DMSO) and stored at −20 °C. Cell lines used in the study included: HT29 (colorectal carcinoma), U87 and SJ-G2 (glioblastoma), MCF-7 (breast carcinoma), A2780 (ovarian carcinoma), H460 (lung carcinoma), A431 (skin carcinoma), Du145 (prostate carcinoma), BE2-C (neuroblastoma), MiaPaCa-2 (pancreatic carcinoma), SMA560 (spontaneous murine astrocytoma), and ADDP (Cis Res Ovarian), together with one non-tumor-derived normal breast cell line (MCF10A). All cell lines were incubated in a humidified atmosphere with 5 % CO2 at 37 °C. The cancer cell lines were maintained in Dulbecco’s modified Eagle’s medium (DMEM; Sigma, Australia) supplemented with fetal bovine serum (10%), sodium pyruvate (10 mM), penicillin (100 IUmL^−1), streptomycin (100 µg mL^−1), and L-glutamine (2 mM).
(§6) Growth inhibition was determined by plating cells in duplicate in medium (100 µL) at a density of 2500–4000 cells per well in 96-well plates. On day 0 (24 h after plating), when the cells are in logarithmic growth, medium (100 µL) with or without the test agent was added to each well. After 72 h of drug exposure, growth inhibitory effects were evaluated using the (3-(4,5-dimethyltiazol-2-yl)-2,5-diphenyltetrazolium bromide) (MTT) assay and absorbance read at 540 nm. The percentage growth inhibition was calculated at a fixed concentration of 25 µM, based on the difference between the optical density values on day 0 and those at the end of drug exposure. Each data point is the mean ± the standard error of the mean (SEM) calculated from three replicates, which were performed on separate occasions and in separate cell line passages.

MCF-7 (breast carcinoma) = test: Cancer screening (MTT growth inhibition), MCF-7; assay type: cell-based; settings: 72 h; for inhibition at 25 µM: MCF7, 25 µM of drug, read-out: Percentage (%) cell growth inhibition; for inhibition at 25 µM / Percentage (%) cell growth inhibition: n = 3, mean ± SEM; for Percentage (%) cell growth inhibition: 25 µM of drug
Procedure: as §5, §6

[6] = test system: A2780 (ovarian carcinoma); test: Cancer screening (MTT growth inhibition), A2780; assay type: cell-based; settings: 72 h; for inhibition at 25 µM: A2780, 25 µM of drug, read-out: Percentage (%) cell growth inhibition; for inhibition at 25 µM / Percentage (%) cell growth inhibition: n = 3, mean ± SEM; for Percentage (%) cell growth inhibition: 25 µM of drug
Procedure: as §5, §6

A431 (skin carcinoma) = test: Cancer screening (MTT growth inhibition), A431; assay type: cell-based; settings: 72 h; for inhibition at 25 µM: A-431, 25 µM of drug, read-out: Percentage (%) cell growth inhibition; for inhibition at 25 µM / Percentage (%) cell growth inhibition: n = 3, mean ± SEM; for Percentage (%) cell growth inhibition: 25 µM of drug
Procedure: as §5, §6

SJ-G2 (glioblastoma) = test: Cancer screening (MTT growth inhibition), SJ-G2; assay type: cell-based; settings: 72 h; for inhibition at 25 µM: SJ-G2, 25 µM of drug, read-out: Percentage (%) cell growth inhibition; for inhibition at 25 µM / Percentage (%) cell growth inhibition: n = 3, mean ± SEM; for Percentage (%) cell growth inhibition: 25 µM of drug
Procedure: as §5, §6

[7] = test system: MCF10A (non-tumor-derived normal breast cell line); test: Cancer screening (MTT growth inhibition), MCF10A; assay type: cell-based; settings: 72 h; for inhibition at 25 µM / Percentage (%) cell growth inhibition: 25 µM of drug, n = 3, mean ± SEM; for inhibition at 25 µM: read-out: Percentage (%) cell growth inhibition
Procedure: as §5
The non-cancer MCF10A cell line was maintained in DMEM:F12 (1:1) cell culture media, 5% heat inactivated horse serum, and supplemented with penicillin (50 IUmL^−1), streptomycin (50 µg mL^−1), HEPES (20 mM), L-glutamine (2 mM), epidermal growth factor (20 ng mL^−1), hydrocortisone (500 ng mL^−1), cholera toxin (100 ng mL^−1), and insulin ([…]).
as §6

[8] = at 100 μM, in methanol, read-out: inhibition %
[9] = at 100 μM, read-out: NI: No inhibition
[10] = at 1000 μM, in methanol, read-out: inhibition %
[11] = at 1000 μM, read-out: NI: No inhibition

Molecule | NI: No inhibition ([1]; at 100 μM) | inhibition % ([1]; at 100 μM) | NI: No inhibition ([2]; at 100 μM) | inhibition % ([2]; at 100 μM) | NI: No inhibition ([3]; at 100 μM) | inhibition % ([3]; at 100 μM) | inhibition at 100 µM (E. coli β-glucuronidase; [8]) | inhibition at 100 µM (E. coli β-glucuronidase; [9]) | inhibition at 100 µM [4, 8] | inhibition at 100 µM [4, 9] | inhibition at 25 µM ([5]; Homo sapiens) | inhibition at 25 µM (MCF-7 (breast carcinoma); Homo sapiens) | inhibition at 25 µM ([6]; Homo sapiens) | inhibition at 25 µM (A431 (skin carcinoma); Homo sapiens) | inhibition at 25 µM (SJ-G2 (glioblastoma)) | inhibition at 25 µM ([7]; Homo sapiens, MCF-10A) | Percentage (%) cell growth inhibition [5] | Percentage (%) cell growth inhibition (MCF-7 (breast carcinoma)) | Percentage (%) cell growth inhibition [6] | Percentage (%) cell growth inhibition (A431 (skin carcinoma)) | also measured
CC1(C)OCC(C2OC3OC(C)(C)OC3C2[B-]23OCC[NH+]2CCO3)O1 [Compound 6, 3-Deoxy-3-Boronodiethanolamine-1,2:5,6-Di-O-isopropylidene-α-D-galactofuranose] | NI (No inhibition (less than 50% inhibition at 100 μM)) | 3.1% | NI (No inhibition (less than 50% inhibition at 100 μM)) | 12.2% | NI (No inhibition (less than 50% inhibition at 100 μM)) | 16.3% | 3.5% | < 50% | 0% | < 50% | 10 ± 5% | 14 ± 5% | 10 ± 5% | 0% | < 0% | 5 ± 1% | – | – | – | – | –
N[C@@H](Cc1ccc(B(O)O)cc1)C(=O)O [^10B-BPA] | NI (No inhibition (less than 50% inhibition at 100 μM)) | 0% | NI (No inhibition (less than 50% inhibition at 100 μM)) | 14.2% | NI (No inhibition (less than 50% inhibition at 100 μM)) | 0% | – | – | – | – | – | – | – | – | – | – | 15 ± 4% | 1 ± 3% | 8 ± 4% | 4 ± 4% | inhibition % (E. coli β-glucuronidase; at 100 μM, in methanol): 2.4%; inhibition % ([4]; at 100 μM, in methanol): 0%; Percentage (%) cell growth inhibition (SJ-G2 (glioblastoma)): 5 ± 10%; Percentage (%) cell growth inhibition [7]: <0%
N[C@@H](Cc1ccc(B(O)O)cc1)C(=O)O [BPA, 4-borono-L-phenylalanine] | NI (No inhibition (less than 50% inhibition at 100 μM)) | 0% | NI (No inhibition (less than 50% inhibition at 100 μM)) | 0% | NI (No inhibition (less than 50% inhibition at 100 μM)) | 10.9% | 0.5% | < 50% | 0% | < 50% | 14% | < 0% | 4 ± 1% | 4 ± 6% | 5 ± 8% | 4 ± 1% | – | – | – | – | –
OCC1OC(O)C(O)C(B(O)O)C1O [Compound 7, 3-Boronic-3-Deoxy-D-galactose] | – | – | – | – | – | – | – | – | – | – | -2 ± 2% | 2 ± 2% | 8 ± 3% | 3% | 7 ± 4% | 7 ± 3% | – | – | – | – | NI: No inhibition ([1]; at 1000 μM): NI (No inhibition (less than 50% inhibition at 1000 μM)); inhibition % ([1]; at 1000 μM): 18.3%; NI: No inhibition ([2]; at 1000 μM): NI (No inhibition (less than 50% inhibition at 1000 μM)); inhibition % ([2]; at 1000 μM): 12.6%; NI: No inhibition ([3]; at 1000 μM): NI (No inhibition (less than 50% inhibition at 1000 μM)); inhibition % ([3]; at 1000 μM): 40.7%; inhibition at 1000 µM (E. coli β-glucuronidase; [10]): 3.7%; inhibition at 1000 µM (E. coli β-glucuronidase; [11]): < 50%; inhibition at 1000 µM [4, 10]: 1.5%; inhibition at 1000 µM [4, 11]: < 50%; GI50 ([5]; Homo sapiens, HT-29, dose response, read-out: GI50 = Concentration that inhibits cell growth by 50%): > 50 µM; GI50 (MCF-7 (breast carcinoma); Homo sapiens, MCF7, dose response, read-out: GI50 = Concentration that inhibits cell growth by 50%): > 50 µM; GI50 ([6]; Homo sapiens, A2780, dose response, read-out: GI50 = Concentration that inhibits cell growth by 50%): > 50 µM; GI50 (A431 (skin carcinoma); Homo sapiens, A-431, dose response, read-out: GI50 = Concentration that inhibits cell growth by 50%): > 50 µM; GI50 (SJ-G2 (glioblastoma); SJ-G2, dose response, read-out: GI50 = Concentration that inhibits cell growth by 50%): > 50 µM; GI50 ([7]; Homo sapiens, MCF-10A, dose response, read-out: GI50 = Concentration that inhibits cell growth by 50%): > 50 µM
Borocaptate sodium [BSH] | – | – | – | – | – | – | – | – | – | – | – | – | – | – | – | – | 3 ± 2% | 15 ± 3% | 2 ± 5% | <0% | NI: No inhibition ([1]; at 1000 μM): NI (No inhibition (less than 50% inhibition at 1000 μM)); inhibition % ([1]; at 1000 μM): 0%; NI: No inhibition ([2]; at 1000 μM): NI (No inhibition (less than 50% inhibition at 1000 μM)); inhibition % ([2]; at 1000 μM): 15%; NI: No inhibition ([3]; at 1000 μM): NI (No inhibition (less than 50% inhibition at 1000 μM)); inhibition % ([3]; at 1000 μM): 0%; inhibition % (E. coli β-glucuronidase; at 1000 μM, in methanol): 6%; inhibition % ([4]; at 1000 μM, in methanol): 0%; Percentage (%) cell growth inhibition (SJ-G2 (glioblastoma)): 3 ± 8%; Percentage (%) cell growth inhibition [7]: 8 ± 3%
